Laboratory results taken from ChEMBL document CHEMBL4376820, “Homodimeric Tobramycin Adjuvant Repurposes Novobiocin as an Effective Antibacterial Agent against Gram-Negative Bacteria” (J Med Chem, 2019).
Activity calls are given as the source filed them. The calls are words filed in the database; no cut-off is given here.

Tests used:
Pseudomonas aeruginosa [1] = assay: Synergistic antibacterial activity against wild type Pseudomonas aeruginosa PAO1 assessed as potentiation of vancomycin-induced antibacterial effect at <=7.1 uM incubated for 18 hrs by checkerboard assay; type: functional, organism-based
Pseudomonas aeruginosa [2] = assay: Synergistic antibacterial activity against wild type Pseudomonas aeruginosa PAO1 assessed as potentiation of moxifloxacin-induced antibacterial effect incubated for 18 hrs by checkerboard assay; type: functional, organism-based
Pseudomonas aeruginosa [3] = assay: Synergistic antibacterial activity against wild type Pseudomonas aeruginosa PAO1 assessed as potentiation of aztreonam-induced antibacterial effect incubated for 18 hrs by checkerboard assay; type: functional, organism-based
Pseudomonas aeruginosa [4] = assay: Synergistic antibacterial activity against wild type Pseudomonas aeruginosa PAO1 assessed as potentiation of levofloxacin-induced antibacterial effect incubated for 18 hrs by checkerboard assay; type: functional, organism-based
Pseudomonas aeruginosa [5] = assay: Synergistic antibacterial activity against wild type Pseudomonas aeruginosa PAO1 assessed as potentiation of minocycline-induced antibacterial effect incubated for 18 hrs by checkerboard assay; type: functional, organism-based
Pseudomonas aeruginosa [6] = assay: Synergistic antibacterial activity against wild type Pseudomonas aeruginosa PAO1 assessed as potentiation of fosfomycin-induced antibacterial effect incubated for 18 hrs by checkerboard assay; type: functional, organism-based
Pseudomonas aeruginosa [7] = assay: Synergistic antibacterial activity against wild type Pseudomonas aeruginosa PAO1 assessed as potentiation of ciprofloxacin-induced antibacterial effect incubated for 18 hrs by checkerboard assay; type: functional, organism-based
HepG2 = assay: Cytotoxicity against human HepG2 cells at 50 uM incubated for 48 hrs by PrestoBlue dye based fluorescence assay; type: cell-based; settings: hepg2, 48 h
Pseudomonas aeruginosa [8] = assay: Antibacterial activity against wild type Pseudomonas aeruginosa PAO1 assessed as fractional inhibitory concentration index incubated for 18 hrs in presence of tobramycin by checkerboard assay; type: functional
Pseudomonas aeruginosa [9] = assay: Synergistic antibacterial activity against wild type Pseudomonas aeruginosa PAO1 assessed as potentiation of chloramphenicol-induced antibacterial effect incubated for 18 hrs by checkerboard assay; type: functional, organism-based
Pseudomonas aeruginosa [10] = assay: Synergistic antibacterial activity against wild type Pseudomonas aeruginosa PAO1 assessed as potentiation of levofloxacin-induced antibacterial effect incubated for 18 hrs by checkerboard assay relative to levofloxacin alone; type: functional
Pseudomonas aeruginosa [11] = assay: Synergistic antibacterial activity against wild type Pseudomonas aeruginosa PAO1 assessed as potentiation of doxycycline-induced antibacterial effect incubated for 18 hrs by checkerboard assay; type: functional, organism-based
Pseudomonas aeruginosa [12] = assay: Synergistic antibacterial activity against wild type Pseudomonas aeruginosa PAO1 assessed as potentiation of cefotaxime-induced antibacterial effect incubated for 18 hrs by checkerboard assay; type: functional, organism-based
Pseudomonas aeruginosa [13] = assay: Synergistic antibacterial activity against wild type Pseudomonas aeruginosa PAO1 assessed as potentiation of piperacillin-induced antibacterial effect incubated for 18 hrs by checkerboard assay relative to piperacillin alone; type: functional
Pseudomonas aeruginosa [14] = assay: Synergistic antibacterial activity against wild type Pseudomonas aeruginosa PAO1 assessed as potentiation of fosfomycin-induced antibacterial effect incubated for 18 hrs by checkerboard assay relative to fosfomycin alone; type: functional
Pseudomonas aeruginosa [15] = assay: Synergistic antibacterial activity against wild type Pseudomonas aeruginosa PAO1 assessed as potentiation of cefotaxime-induced antibacterial effect incubated for 18 hrs by checkerboard assay relative to cefotaxime alone; type: functional
Pseudomonas aeruginosa [16] = assay: Synergistic antibacterial activity against wild type Pseudomonas aeruginosa PAO1 assessed as potentiation of piperacillin-induced antibacterial effect incubated for 18 hrs by checkerboard assay; type: functional, organism-based
Pseudomonas aeruginosa [17] = assay: Synergistic antibacterial activity against wild type Pseudomonas aeruginosa PAO1 assessed as potentiation of novobiocin-induced antibacterial effect incubated for 18 hrs by checkerboard assay; type: functional, organism-based
Pseudomonas aeruginosa [18] = assay: Synergistic antibacterial activity against wild type Pseudomonas aeruginosa PAO1 assessed as potentiation of novobiocin-induced antibacterial effect incubated for 18 hrs by checkerboard assay relative to novobiocin alone; type: functional
Pseudomonas aeruginosa [19] = assay: Synergistic antibacterial activity against wild type Pseudomonas aeruginosa PAO1 assessed as potentiation of ciprofloxacin-induced antibacterial effect incubated for 18 hrs by checkerboard assay relative to ciprofloxacin alone; type: functional
Pseudomonas aeruginosa [20] = assay: Synergistic antibacterial activity against wild type Pseudomonas aeruginosa PAO1 assessed as potentiation of meropenem-induced antibacterial effect incubated for 18 hrs by checkerboard assay relative to meropenem alone; type: functional
Pseudomonas aeruginosa [21] = assay: Synergistic antibacterial activity against wild type Pseudomonas aeruginosa PAO1 assessed as potentiation of aztreonam-induced antibacterial effect incubated for 18 hrs by checkerboard assay relative to aztreonam alone; type: functional
Pseudomonas aeruginosa [22] = assay: Synergistic antibacterial activity against wild type Pseudomonas aeruginosa PAO1 assessed as potentiation of tobramycin-induced antibacterial effect at <= 7.1 uM incubated for 18 hrs by checkerboard assay; type: functional, organism-based
Pseudomonas aeruginosa [23] = assay: Synergistic antibacterial activity against wild type Pseudomonas aeruginosa PAO1 assessed as potentiation of minocycline-induced antibacterial effect incubated for 18 hrs by checkerboard assay relative to minocycline alone; type: functional
Erythrocyte = assay: Hemolytic activity against porcine erythrocytes assessed as hemoglobin release at 1024 ug/ml incubated for 1 hr by microplate reader analysis; type: ADME, cell-based, Sus scrofa; settings: pig
Pseudomonas aeruginosa [24] = assay: Synergistic antibacterial activity against wild type Pseudomonas aeruginosa PAO1 assessed as potentiation of clindamycin-induced antibacterial effect incubated for 18 hrs by checkerboard assay relative to clindamycin alone; type: functional
Pseudomonas aeruginosa [25] = assay: Synergistic antibacterial activity against wild type Pseudomonas aeruginosa PAO1 assessed as potentiation of linezolid-induced antibacterial effect incubated for 18 hrs by checkerboard assay relative to linezolid alone; type: functional
Pseudomonas aeruginosa [26] = assay: Synergistic antibacterial activity against wild type Pseudomonas aeruginosa PAO1 assessed as potentiation of ceftazidime-induced antibacterial effect incubated for 18 hrs by checkerboard assay; type: functional, organism-based
Pseudomonas aeruginosa [27] = assay: Synergistic antibacterial activity against wild type Pseudomonas aeruginosa PAO1 assessed as potentiation of rifampicin-induced antibacterial effect incubated for 18 hrs by checkerboard assay relative to rifampicin alone; type: functional
Pseudomonas aeruginosa [28] = assay: Synergistic antibacterial activity against wild type Pseudomonas aeruginosa PAO1 assessed as potentiation of linezolid-induced antibacterial effect incubated for 18 hrs by checkerboard assay; type: functional, organism-based
Pseudomonas aeruginosa [29] = assay: Synergistic antibacterial activity against wild type Pseudomonas aeruginosa PAO1 assessed as potentiation of doxycycline-induced antibacterial effect incubated for 18 hrs by checkerboard assay relative to doxycycline alone; type: functional
HEK293 = assay: Cytotoxicity against human HEK293 cells at 50 uM incubated for 48 hrs by PrestoBlue dye based fluorescence assay; type: cell-based; settings: hek293, 48 h
Pseudomonas aeruginosa [30] = assay: Synergistic antibacterial activity against wild type Pseudomonas aeruginosa PAO1 assessed as potentiation of meropenem-induced antibacterial effect incubated for 18 hrs by checkerboard assay; type: functional, organism-based
Pseudomonas aeruginosa [31] = assay: Synergistic antibacterial activity against wild type Pseudomonas aeruginosa PAO1 assessed as potentiation of clindamycin-induced antibacterial effect incubated for 18 hrs by checkerboard assay; type: functional, organism-based
[32] = Toxicity in Galleria mellonella larvae assessed as survivability at 200 mg/kg measured every 6 hrs for 72 hrs; type: organism-based; settings: in vivo
Pseudomonas aeruginosa [33] = assay: Antibacterial activity against wild type Pseudomonas aeruginosa PAO1 assessed as fractional inhibitory concentration index incubated for 18 hrs in presence of colistin by checkerboard assay; type: functional
Pseudomonas aeruginosa [34] = assay: Synergistic antibacterial activity against wild type Pseudomonas aeruginosa PAO1 assessed as potentiation of moxifloxacin-induced antibacterial effect incubated for 18 hrs by checkerboard assay relative to moxifloxacin alone; type: functional
Pseudomonas aeruginosa [35] = assay: Synergistic antibacterial activity against wild type Pseudomonas aeruginosa PAO1 assessed as potentiation of colistin-induced antibacterial effect at <=7.1 uM incubated for 18 hrs by checkerboard assay; type: functional, organism-based
Pseudomonas aeruginosa [36] = assay: Synergistic antibacterial activity against wild type Pseudomonas aeruginosa PAO1 assessed as potentiation of rifampicin-induced antibacterial effect incubated for 18 hrs by checkerboard assay; type: functional, organism-based
Pseudomonas aeruginosa [37] = assay: Synergistic antibacterial activity against wild type Pseudomonas aeruginosa PAO1 assessed as potentiation of ceftazidime-induced antibacterial effect incubated for 18 hrs by checkerboard assay relative to ceftazidime alone; type: functional
Pseudomonas aeruginosa [38] = assay: Synergistic antibacterial activity against wild type Pseudomonas aeruginosa PAO1 assessed as potentiation of chloramphenicol-induced antibacterial effect incubated for 18 hrs by checkerboard assay relative to chloramphenicol alone; type: functional
Acinetobacter baumannii [39] = assay: Antibacterial activity against novobiocin and test compound-resistant Acinetobacter baumannii ATCC 17978 mutant generated from seven serial passages in presence of novobiocin by checkerboard assay; type: functional
Acinetobacter baumannii [40] = assay: Antibacterial activity against novobiocin-resistant Acinetobacter baumannii ATCC 17978 mutant generated from seven serial passages by checkerboard assay; type: functional
Acinetobacter baumannii [41] = assay: Antibacterial activity against wild type Acinetobacter baumannii ATCC 17978 assessed as resistant development at sub-MIC measured after 7 days of passaging by microbroth dilution method relative to control; type: functional
Acinetobacter baumannii [42] = assay: Antibacterial activity against colistin-resistant Acinetobacter baumannii ATCC 17978 mutant generated from seven serial passages by checkerboard assay; type: functional
Acinetobacter baumannii [43] = assay: Antibacterial activity against wild type Acinetobacter baumannii ATCC 17978 by checkerboard assay; type: functional

In the case of `NC[C@H]1O[C@H](O[C@H]2[C@H](OCCCCCCCCn3cc(CCCCO[C@@H]4[C@@H](O[C@H]5O[C@H](CO)[C@@H](O)[C@H](N)[C@H]5O)[C@H](N)C[C@H](N)[C@H]4O[C@H]4O[C@H](CN)[C@@H](O)C[C@H]4N)nn3)[C@@H](O[C@H]3O[C@H](CO)[C@@H](O)[C@H](N)[C@H]3O)[C@H](N)C[C@@H]2N)[C@H](N)C[C@@H]1O.O=C(O)C(F)(F)F.O=C(O)C(F)(F)F.O=C(O)C(F)(F)F.O=C(O)C(F)(F)F.O=C(O)C(F)(F)F.O=C(O)C(F)(F)F.O=C(O)C(F)(F)F.O=C(O)C(F)(F)F.O=C(O)C(F)(F)F.O=C(O)C(F)(F)F`, the Activity (Pseudomonas aeruginosa [1]) is reported as “inactive”, the Activity (Pseudomonas aeruginosa [2]) is reported as “Dose-dependent effect” and the Activity (Pseudomonas aeruginosa [3]) is reported as “Dose-dependent effect”. For the same compound, the Activity (Pseudomonas aeruginosa [4]) was “Dose-dependent effect”, the Activity (Pseudomonas aeruginosa [5]) was “Dose-dependent effect” and the Activity (Pseudomonas aeruginosa [6]) was “Dose-dependent effect”. For the same compound, the Activity (Pseudomonas aeruginosa [7]) was “Dose-dependent effect”, the Activity (HepG2) was “Non-Toxic” and the “fractional inhibitory concentration index (FICI)” value (Pseudomonas aeruginosa [8]) was over 4. The Activity (Pseudomonas aeruginosa [9]) was “Dose-dependent effect”, the “fold change (FC)” value (Pseudomonas aeruginosa [10]) was 4 - 128 and the Activity (Pseudomonas aeruginosa [11]) was “Dose-dependent effect”. The Activity (Pseudomonas aeruginosa [12]) was “Dose-dependent effect”, the “fold change (FC)” value (Pseudomonas aeruginosa [13]) was 4 - 128 and the “fold change (FC)” value (Pseudomonas aeruginosa [14]) was 4 - 128. For the same compound, the “fold change (FC)” value (Pseudomonas aeruginosa [15]) was 4 - 128, the Activity (Pseudomonas aeruginosa [16]) was “Dose-dependent effect” and the Activity (Pseudomonas aeruginosa [17]) was “Dose-dependent effect”. The “fold change (FC)” value (Pseudomonas aeruginosa [18]) was 4 - 128, the “fold change (FC)” value (Pseudomonas aeruginosa [19]) was 4 - 128 and the “fold change (FC)” value (Pseudomonas aeruginosa [20]) was 4 - 128. The “fold change (FC)” value (Pseudomonas aeruginosa [21]) was 4 - 128, the Activity (Pseudomonas aeruginosa [22]) was “inactive” and the “fold change (FC)” value (Pseudomonas aeruginosa [23]) was 4 - 128. For the same compound, the Activity (Erythrocyte) was “Non-Toxic”, the “fold change (FC)” value (Pseudomonas aeruginosa [24]) was 4 - 128 and the “fold change (FC)” value (Pseudomonas aeruginosa [25]) was 4 - 128. The Activity (Pseudomonas aeruginosa [26]) was “Dose-dependent effect”, the “fold change (FC)” value (Pseudomonas aeruginosa [27]) was 4 - 128 and the Activity (Pseudomonas aeruginosa [28]) was “Dose-dependent effect”. For the same compound, the “fold change (FC)” value (Pseudomonas aeruginosa [29]) was 4 - 128, the Activity (HEK293) was “Non-Toxic” and the Activity (Pseudomonas aeruginosa [30]) was “Dose-dependent effect”. For the same compound, the Activity (Pseudomonas aeruginosa [31]) was “Dose-dependent effect”, the Activity [32] was “Non-Toxic” and the “fractional inhibitory concentration index (FICI)” value (Pseudomonas aeruginosa [33]) was over 4. For the same compound, the “fold change (FC)” value (Pseudomonas aeruginosa [34]) was 4 - 128, the Activity (Pseudomonas aeruginosa [35]) was “inactive” and the Activity (Pseudomonas aeruginosa [36]) was “Dose-dependent effect”. For the same compound, the “fold change (FC)” value (Pseudomonas aeruginosa [37]) was 4 - 128 and the “fold change (FC)” value (Pseudomonas aeruginosa [38]) was 4 - 128.

COLISTIN showed an MIC (Acinetobacter baumannii [39]) of 0.031 µg/mL, an MIC (Acinetobacter baumannii [40]) of 8 µg/mL and a fold change (FC) (Acinetobacter baumannii [41]) of 1024. It also gave an MIC (Acinetobacter baumannii [42]) of 1020 µg/mL and an MIC (Acinetobacter baumannii [43]) of 0.063 µg/mL.
